Experimental data published in patent publication US20100298141A1, “SUBSTITUTED PYRIDINE N-OXIDE HERBICIDES” (E. I. DU PONT DE NEMOURS AND COMPANY, priority 2007, published 2010).

Legend:
pigweed = experiment: Test C pre-/postemergence test; type: in vivo, Amaranthus retroflexus; conditions: for Plant response rating, Pigweed: scale 0 to 100, 0 no effect, 100 complete control
From the text: (§1) Seeds of plant species selected from blackgrass (Alopecurus myosuroides), downy brome (Bromus tectorum), green foxtail (Setaria viridis), Italian ryegrass (Lolium multiflorum), wheat (Triticum aestivum), wild oat (Avena fatua), catchweed bedstraw (Galium aparine), Russian thistle (Salsola kali), […] (Cynodon dactylon), Surinam grass (Brachiaria decumbens), cocklebur (Xanthium strumarium), corn (Zea mays), crabgrass (Digitaria sanguinalis), woolly cupgrass (Eriochloa villosa), giant foxtail (Setaria faberii), Goosegrass (Eleusin indica), johnsongrass (Sorghum halepense), kochia (Kochia scoparia), lambsquarters (Chenopodium album), morningglory (Ipomoea coccinea), eastern black nightshade (Solanum ptycanthum), yellow nutsedge (Cyperus esculentus), pigweed (Amaranthus retroflexus), common ragweed (Ambrosia elation), soybean (Glycine max), common (oilseed) sunflower (Helianthus annuus), and velvetleaf (Abutilon theophrasti) were planted and treated preemergence with test chemicals formulated in a non-phytotoxic solvent mixture which included a surfactant. At the same time, plants selected from these crop and weed species and also winter barley (Hordeum vulgare), canarygrass (Phalaris minor), and chickweed (Stellaria media) were treated with postemergence applications of some of the test chemicals formulated in the same manner. Plants ranged in height from 2 to 18 cm (1- to 4-leaf stage) for postemergence treatments. […] At time of treatment, test pots were flooded to 3 cm above the soil surface, treated by application of test compounds directly to the paddy water, and then maintained at that water depth for the duration of the test. […] A dash (-) response means no test result.

corn [1] = experiment: Test C pre-/postemergence test; type: in vivo, Zea mays; conditions: for Plant response rating, Corn: scale 0 to 100, 0 no effect, 100 complete control
From the text: as §1

corn [2] = experiment: Test A pre-/postemergence greenhouse test; type: in vivo, Zea mays; conditions: for Corn plant response rating: 0 to 100 scale
Summary of the method: (§2)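 Planting was into mixed loam soil and sand; preemergence treatment followed as a directed soil spray. Concurrently, emerged plants (one- to two-leaf, 2–10 cm) received postemergence applications of identically formulated compound (non-phytotoxic solvent, surfactant). After approximately ten days under greenhouse conditions, injury was judged by eye against untreated plants.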

crabgrass [3] = experiment: Test C pre-/postemergence test; type: in vivo, Digitaria sanguinalis; conditions: for Plant response rating, Crabgrass, Large: scale 0 to 100, 0 no effect, 100 complete control
From the text: as §1

Goosegrass = experiment: Test C pre-/postemergence test; type: in vivo, Eleusin indica; conditions: for Plant response rating, Goosegrass: scale 0 to 100, 0 no effect, 100 complete control
From the text: as §1

crabgrass [4] = experiment: Test A pre-/postemergence greenhouse test; type: in vivo, Digitaria sanguinalis; conditions: for Crabgrass, Large plant response rating: 0 to 100 scale
Summary of the method: as §2

yellow nutsedge = experiment: Test C pre-/postemergence test; type: in vivo, Cyperus esculentus; conditions: for Plant response rating, Nutsedge, Yellow: scale 0 to 100, 0 no effect, 100 complete control
From the text: as §1

barnyardgrass [5] = experiment: Test C flooded paddy test; type: in vivo, Echinochloa crus-galli; conditions: Flood
Summary of the method: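 Visual injury ratings against untreated controls, taken 13 to 15 days after compound was added to paddy water standing 3 cm above the soil.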

Italian ryegrass = experiment: Test C pre-/postemergence test; type: in vivo, Lolium multiflorum; conditions: for Plant response rating, Ryegrass, Italian: scale 0 to 100, 0 no effect, 100 complete control
From the text: as §1

velvetleaf = experiment: Test A pre-/postemergence greenhouse test; type: in vivo, Abutilon theophrasti; conditions: for Velvetleaf plant response rating: 0 to 100 scale
Summary of the method: as §2

johnsongrass = experiment: Test C pre-/postemergence test; type: in vivo, Sorghum halepense; conditions: for Plant response rating, Johnsongrass: scale 0 to 100, 0 no effect, 100 complete control
From the text: as §1

barnyardgrass [6] = experiment: Test A pre-/postemergence greenhouse test; type: in vivo, Echinochloa crus-galli; conditions: for Barnyardgrass plant response rating: 0 to 100 scale
Summary of the method: as §2

green foxtail = experiment: Test C pre-/postemergence test; type: in vivo, Setaria viridis; conditions: for Plant response rating, Foxtail, Green: scale 0 to 100, 0 no effect, 100 complete control
From the text: as §1

soybean = experiment: Test C pre-/postemergence test; type: in vivo, Glycine max; conditions: for Plant response rating, Soybean: scale 0 to 100, 0 no effect, 100 complete control
From the text: as §1

bermudagrass = experiment: Test C pre-/postemergence test; type: in vivo, Cynodon dactylon; conditions: for Plant response rating, Bermudagrass: scale 0 to 100, 0 no effect, 100 complete control
From the text: as §1

[7] = 31 g ai/ha, Preemergence, scale 0 to 100
[8] = 62 g ai/ha, preemergence, scale 0 (no effect) to 100 (complete control)
[9] = preemergence, 125 g ai/ha, scale 0 (no effect) to 100 (complete control)
[10] = Postemergence, 125 g ai/ha, 0 is no effect, 100 is complete control
[11] = Postemergence, 500 g ai/ha, 0 is no effect, 100 is complete control
[12] = Preemergence, 125 g ai/ha, 0 no effect, 100 complete control
[13] = Preemergence, 500 g ai/ha, 0 to 100 scale where 0 is no effect and 100 is complete control

## CC(c1c(C(F)(F)F)nn(C)c1OC(F)F)S(=O)(=O)c1cccc[n+]1[O-] (centres unmarked) [Compound 5]
pigweed; [7]
  Pigweed plant response rating: 100
pigweed; [8]
  Pigweed plant response rating: 100
pigweed; Postemergence, 31 g ai/ha
  Plant response rating (0 to 100), Pigweed: 0
pigweed; Postemergence, 62 g ai/ha
  Plant response rating (0 to 100), Pigweed: 0
pigweed; Postemergence, 125 g ai/ha
  Plant response rating, Pigweed: 0
pigweed; Postemergence, 250 g ai/ha
  Plant response rating, Pigweed: 0
pigweed; Preemergence, 250 g ai/ha
  Plant response rating (0 to 100), Pigweed: 100
pigweed; [9]
  Pigweed plant response rating: 100
Corn [1]; [7]
  Corn plant response rating: 0
Corn [1]; [8]
  Corn plant response rating: 40
Corn [1]; Postemergence, 31 g ai/ha
  Plant response rating (0 to 100), Corn: 0
Corn [1]; Postemergence, 62 g ai/ha
  Plant response rating, Corn: 0
Corn [1]; Postemergence, 125 g ai/ha
  Plant response rating, Corn: 0
Corn [1]; Postemergence, 250 g ai/ha
  Plant response rating, Corn: 0
Corn [1]; Preemergence, 250 g ai/ha
  Plant response rating (0 to 100), Corn: 95
Corn [1]; [9]
  Corn plant response rating: 55
Corn [2]; [10]
  Corn plant response rating: 30
Corn [2]; [11]
  Corn plant response rating: 70
Corn [2]; [12]
  Corn plant response rating: 20
Corn [2]; [13]
  Plant response rating, Corn: 80
Crabgrass [3]; [7]
  Crabgrass, Large plant response rating: 98
Crabgrass [3]; [8]
  Crabgrass, Large plant response rating: 100
Crabgrass [3]; Postemergence, 31 g ai/ha
  Plant response rating (0 to 100), Crabgrass, Large: 5
Crabgrass [3]; Postemergence, 62 g ai/ha
  Plant response rating, Crabgrass, Large: 20
Crabgrass [3]; Postemergence, 125 g ai/ha
  Plant response rating, Crabgrass, Large: 60
Crabgrass [3]; Postemergence, 250 g ai/ha
  Plant response rating, Crabgrass, Large: 60
Crabgrass [3]; Preemergence, 250 g ai/ha
  Plant response rating (0 to 100), Crabgrass, Large: 100
Crabgrass [3]; [9]
  Crabgrass, Large plant response rating: 100
Goosegrass; [7]
  Goosegrass plant response rating: 100
Goosegrass; [8]
  Goosegrass plant response rating: 100
Goosegrass; Postemergence, 31 g ai/ha
  Plant response rating (0 to 100), Goosegrass: 0
Goosegrass; Postemergence, 62 g ai/ha
  Plant response rating, Goosegrass: 55
Goosegrass; Postemergence, 125 g ai/ha
  Plant response rating, Goosegrass: 60
Goosegrass; Postemergence, 250 g ai/ha
  Plant response rating, Goosegrass: 70
Goosegrass; Preemergence, 250 g ai/ha
  Plant response rating (0 to 100), Goosegrass: 100
Goosegrass; [9]
  Goosegrass plant response rating: 100
Crabgrass [4]; [10]
  Crabgrass, Large plant response rating: 80
Crabgrass [4]; [11]
  Crabgrass, Large plant response rating: 90
Crabgrass [4]; [12]
  Crabgrass, Large plant response rating: 80
Crabgrass [4]; [13]
  Plant response rating, Crabgrass, Large: 100
Yellow nutsedge; [7]
  Nutsedge, Yellow plant response rating: 80
Yellow nutsedge; [8]
  Nutsedge, Yellow plant response rating: 95
Yellow nutsedge; Postemergence, 31 g ai/ha
  Plant response rating (0 to 100), Nutsedge, Yellow: 0
Yellow nutsedge; Postemergence, 62 g ai/ha
  Plant response rating, Nutsedge, Yellow: 0
Yellow nutsedge; Postemergence, 125 g ai/ha
  Plant response rating, Nutsedge, Yellow: 0
Yellow nutsedge; Postemergence, 250 g ai/ha
  Plant response rating, Nutsedge, Yellow: 10
Yellow nutsedge; Preemergence, 250 g ai/ha
  Plant response rating (0 to 100), Nutsedge, Yellow: 100
Yellow nutsedge; [9]
  Nutsedge, Yellow plant response rating: 100
Barnyardgrass [5]; 31 g ai/ha, scale 0 to 100 (0 no effect, 100 complete control)
  Plant response rating, Barnyardgrass: 70
Barnyardgrass [5]; 62 g ai/ha, scale 0 to 100, 0 no effect, 100 complete control, 13 to 15 days
  Plant response rating, Barnyardgrass: 80
Barnyardgrass [5]; 125 g ai/ha, scale 0 to 100, 0 no effect, 100 complete control, 13 to 15 days
  Plant response rating, Barnyardgrass: 85
Barnyardgrass [5]; 250 g ai/ha, scale 0 to 100 (0 no effect, 100 complete control)
  Plant response rating, Barnyardgrass: 85
Italian ryegrass; [7]
  Ryegrass, Italian plant response rating: 80
Italian ryegrass; [8]
  Ryegrass, Italian plant response rating: 100
Italian ryegrass; Postemergence, 31 g ai/ha
  Plant response rating (0 to 100), Ryegrass, Italian: 0
Italian ryegrass; Postemergence, 62 g ai/ha
  Plant response rating (0 to 100), Ryegrass, Italian: 0
Italian ryegrass; Postemergence, 125 g ai/ha
  Plant response rating, Ryegrass, Italian: 40
Italian ryegrass; Postemergence, 250 g ai/ha
  Plant response rating, Ryegrass, Italian: 50
Italian ryegrass; Preemergence, 250 g ai/ha
  Plant response rating (0 to 100), Ryegrass, Italian: 100
Italian ryegrass; [9]
  Ryegrass, Italian plant response rating: 100
velvetleaf; [10]
  Velvetleaf plant response rating: 60
velvetleaf; [11]
  Velvetleaf plant response rating: 80
velvetleaf; [12]
  Velvetleaf plant response rating: 90
velvetleaf; [13]
  Plant response rating, Velvetleaf: 90
johnsongrass; [7]
  Johnsongrass plant response rating: 100
johnsongrass; [8]
  Johnsongrass plant response rating: 100
johnsongrass; Postemergence, 31 g ai/ha
  Plant response rating (0 to 100), Johnsongrass: 0
johnsongrass; Postemergence, 62 g ai/ha
  Plant response rating, Johnsongrass: 0
johnsongrass; Postemergence, 125 g ai/ha
  Plant response rating, Johnsongrass: 0
johnsongrass; Postemergence, 250 g ai/ha
  Plant response rating, Johnsongrass: 10
johnsongrass; Preemergence, 250 g ai/ha
  Plant response rating (0 to 100), Johnsongrass: 100
johnsongrass; [9]
  Johnsongrass plant response rating: 100
Barnyardgrass [6]; [10]
  Barnyardgrass plant response rating: 80
Barnyardgrass [6]; [11]
  Barnyardgrass plant response rating: 80
Barnyardgrass [6]; [12]
  Barnyardgrass plant response rating: 70
Barnyardgrass [6]; [13]
  Plant response rating, Barnyardgrass: 90
Green foxtail; [7]
  Foxtail, Green plant response rating: 100
Green foxtail; [8]
  Foxtail, Green plant response rating: 100
Green foxtail; Postemergence, 31 g ai/ha
  Plant response rating (0 to 100), Foxtail, Green: 0
Green foxtail; Postemergence, 62 g ai/ha
  Plant response rating, Foxtail, Green: 0
Green foxtail; Postemergence, 125 g ai/ha
  Plant response rating, Foxtail, Green: 60
Green foxtail; Postemergence, 250 g ai/ha
  Plant response rating, Foxtail, Green: 65
Green foxtail; Preemergence, 250 g ai/ha
  Plant response rating (0 to 100), Foxtail, Green: 100
Green foxtail; [9]
  Foxtail, Green plant response rating: 100
soybean; [7]
  Soybean plant response rating: 0
soybean; Postemergence, 31 g ai/ha
  Plant response rating (0 to 100), Soybean: 0
soybean; Postemergence, 62 g ai/ha
  Plant response rating (0 to 100), Soybean: 20
soybean; Postemergence, 125 g ai/ha
  Plant response rating, Soybean: 35
soybean; Postemergence, 250 g ai/ha
  Plant response rating, Soybean: 70
soybean; Preemergence, 250 g ai/ha
  Plant response rating (0 to 100), Soybean: 0
bermudagrass; [7]
  Bermudagrass plant response rating: 100
bermudagrass; [8]
  Bermudagrass plant response rating: 100
bermudagrass; Postemergence, 31 g ai/ha
  Plant response rating (0 to 100), Bermudagrass: 5
bermudagrass; Postemergence, 62 g ai/ha
  Plant response rating, Bermudagrass: 40
bermudagrass; Postemergence, 125 g ai/ha
  Plant response rating, Bermudagrass: 60
bermudagrass; Postemergence, 250 g ai/ha
  Plant response rating, Bermudagrass: 60
bermudagrass; Preemergence, 250 g ai/ha
  Plant response rating (0 to 100), Bermudagrass: 100
bermudagrass; [9]
  Bermudagrass plant response rating: 100
